# Measured values reported in patent US7714158B2, “Ibandronate polymorph” (Hoffmann-La Roche Inc., priority 2005, dated 2010).
# Legend:
# [1] = Relative thermodynamic stability of Ibandronate polymorphs; settings: compared with polymorph B
# [2] = Solubility measurement of crystalline Ibandronate polymorphs by suspension and complexometric titration; format: physicochemical; settings: Polymorph A; water; 25° C., 24 h stirred + 24 h unstirred; listed as Ibandronate polymorph A, monosodium salt monohydrate
# Procedure: The solubility of the individual crystalline Ibandronate polymorphs A and B was measured for various solutions. Approximately 10 g of the corresponding polymorph A or B were suspended in three different buffer solutions at pH 2, pH 4 (Titrisol-buffer, citrate/HCl), at pH 7 (methenamine buffer, HCl) or in water. The suspension was stirred for 24 hours at 25° C. and was kept additionally 24 hours without stirring at the same temperature. Solubility was calculated by titration according to the following method.
# The residue was filtered, 2 ml of the filtrate taken, 5 ml of Titriplex III solution were added and diluted with water to 100 ml. 2 ml of this solution were added to approximately 0.1 ml of xylenol orange indicator and the pH was adjusted to 6.5 by adding small portions of methenamine buffer solution or 0.1 M hydrochloric acid. The solution is titrated immediately with Th-DCTA-xylenol orange complex until the color changes from yellow to reddish-violet. The endpoint is determined photometrically.
structure (smiles),measurement,setting,value
"CCCCCN(C)CCC(O)(P(=O)([O-])O)P(=O)(O)O.O.[Na+] [Polymorph A, 3-(N-methyl-N-pentyl) amino-1-hydroxypropane-1,1-diphosphonic acid monosodium salt monohydrate]",thermodynamic stability,[1],thermodynamically more stable
same,solubility,[2],about 278 g/l
